From PubChem BioAssay AID2747 (The Scripps Research Institute Molecular Screening Center, 2010) come the findings set out here.

Active and inactive are the calls of the source. The rule behind the calls is not given here. A value given as a limit tells only on which side of the number the result lay.

The assay has as its target Luciferin 4-monooxygenase (Photinus pyralis) (UniProt P08659). Put plainly: native luciferase enzyme inhibition – biochemical, luminescence, dose response, artefact control for HSP90 inhibitor project, late-stage follow-up (AID 2747). The note with it: purified firefly luciferase, counterscreen.

Sequence of Luciferin 4-monooxygenase (Photinus pyralis) (P08659 whole entry, looked up): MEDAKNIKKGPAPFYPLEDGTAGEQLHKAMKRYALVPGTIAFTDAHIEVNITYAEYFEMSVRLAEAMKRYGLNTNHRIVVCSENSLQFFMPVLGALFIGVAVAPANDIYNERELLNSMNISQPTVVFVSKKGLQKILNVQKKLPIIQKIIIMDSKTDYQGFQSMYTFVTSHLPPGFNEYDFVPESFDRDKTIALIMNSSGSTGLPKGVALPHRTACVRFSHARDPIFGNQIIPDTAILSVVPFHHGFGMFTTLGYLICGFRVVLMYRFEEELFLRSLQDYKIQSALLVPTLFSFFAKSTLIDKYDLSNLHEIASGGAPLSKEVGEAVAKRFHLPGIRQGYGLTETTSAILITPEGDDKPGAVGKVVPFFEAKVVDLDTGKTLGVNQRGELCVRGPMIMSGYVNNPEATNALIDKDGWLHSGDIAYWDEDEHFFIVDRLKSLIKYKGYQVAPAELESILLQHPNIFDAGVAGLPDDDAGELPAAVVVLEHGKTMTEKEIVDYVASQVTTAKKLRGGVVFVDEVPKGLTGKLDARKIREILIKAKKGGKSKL

A word on the IC50: it is the concentration that inhibits the measured activity by half. Regarding `CCOC(=O)C1=C(c2ccc(OC)cc2)C(=O)c2ccccc2C1=O`, the IC50 is > 60 µM (inactive).

On to `Cc1c(-c2nc(-c3ccc(C(C)(C)C)cc3)no2)n(C)oc1=O`, for which the IC50 is > 60 µM (inactive). For the molecule `CCc1ccc(OCc2ccc(C(=O)OC)o2)cc1`, the IC50 was > 60 µM (inactive). The same measure for `Cc1cc(NO)nc(-c2ccc(Br)cc2)n1`: > 60 µM (inactive); for `COC(=O)c1ccccc1OCCCOc1ccc(C)cc1OC`: > 60 µM (inactive). The same measure for `CC(=O)Nc1ccccc1OCC(=O)c1cc(C)n(Cc2cccs2)c1C`: > 60 µM (inactive). In the case of `COc1ccccc1NC(=O)c1coc(=O)c(Br)c1` it was > 60 µM (inactive); in that of `COc1cc(C=NNc2ccc(Cl)c(C(=O)O)c2)ccc1OC(=O)c1ccc(F)cc1`, > 60 µM (inactive).

Take `Cc1c(-c2nc(-c3ccc(C(F)(F)F)cc3)no2)n(C)oc1=O`: the IC50 is > 60 µM (inactive). In the case of `CCOC(=O)c1csc(NC(=O)c2cc3ccccc3o2)n1`, the IC50 was > 60 µM (inactive).
